Reference: US20220041578A1, “ISOINDOLINE COMPOUND, AND PREPARATION METHOD, PHARMACEUTICAL COMPOSITION, AND APPLICATION OF ISOINDOLINE COMPOUND” (Shanghai Institute of Meteria Medica, Chinese Academy of …, priority 2018, published 2022)
Where two headings read alike, the source gives them in different places.

Tests used:
Format in all cases: cell-based
TNF-α = TNF-α activity inhibition experiment in LPS-stimulated PBMC (ELISA); details: Homo sapiens, compound 10 nM, LPS 1 ug/ml, 72 hours, read-out: Inhibition rate of TNF-a (%)
Description: (§1) All operations of this experiment were carried out according to the conventional experimental process of this kind of experiment at present. Peripheral blood from healthy volunteers was collected by routine standard procedure and cultured in 1640 medium (+10% FBS) to obtain PBMC. After recovery, PBMC was centrifuged and resuspended in serum-free medium. After counting, adjusted the density to be 6.25×10^5/ml; then inoculated 160 ul to a 96-well plate, 1×10^5/well; 20 ul 10× compound and DMSO were added, and incubated for 1 hour in an incubator; then 20 ul 10 XLPS was added resulting the final concentration of 1 ug/ml and incubated in an incubator for 72 hours. Centrifuged the cell plate at 1500 rpm and aspirated 50 ul supernatant according to the ELISA operation. After operating according to the kit, a microplate reader was used to read at 450 nm. The concentration of compound was 10 nM, and DMSO was added as control group. Materials used in this experiment: 96 well plate (Corning, #3599), ELISA kit (Thermo), LPS (Sigma, USA).

IFNγ = IFNγ expression change in anti-human CD3 stimulated PBMC (ELISA); details: compound 10 nM, anti-human CD3 10 ug/ml, 24 hours
Description: as §1, with “plate, 2 holes each,” for “plate,”, “ul 10× anti-human CD3” for “ul 10 XLPS”, “of 10” for “of 1”, “for 24” for “for 72”, “USA). It was found from the test results of the following table that the compounds of the examples of the present invention could be used to regulate the expression of IFNγ.” for “USA).”

IL-2 = IL-2 expression change in anti-human CD3 stimulated PBMC (ELISA); details: compound 10 nM, anti-human CD3 10 ug/ml, 24 hours
Description: as §1, with “plate, 2 holes each,” for “plate,”, “ul 10× anti-human CD3” for “ul 10 XLPS”, “of 10” for “of 1”, “for 24” for “for 72”

MV-4-11 cells = experiment: Effect of the compound on proliferation of MV-4-11 cells (MTS); details: Homo sapiens
Description: MV-4-11 cells were cultured with IMDM plus 10% fetal bovine serum and collected. The cell concentration was diluted according to the action time of 7 days, and 180 ul of cell suspension was added to each well of a 96-well cell plate to make the cell count to be 2000. 20 ul of DMSO with a final concentration of 0.2% was added to the control cell wells. The compound was diluted 5-fold with the 10 mM stock solution, and 20 ul was also added to the compound cell wells (the final concentration of DMSO was 0.2%). The cells were placed in a 37° C., 5% CO2 incubator and incubated for 7 days. After preparing the reaction solution according to the MTS kit (Promega, G5430), 20 μL was added to each well, incubated in a 37° C., 5% CO2 incubator for 3-4 h. Read the 490 nm absorbance value with a microtiter plate, and used the 690 nm absorbance value as the background value and OD490-OD690 as the final initial data. The formula for calculating the inhibition rate of the compound was: inhibition rate=(OD DMSO-ODcompound)/(ODDMSO-Oblank)×100%. The compound's proliferation inhibition IC50 was fitted by Graph Pad Prism 5.0. The experiment was repeated three times, and three parallel experiments were used to calculate the average and standard deviation each time. The cell viability test results were shown in Table 3: A means cell viability IC50<1 μM, B means cell viability 1 μM≤IC50≤20 μM, C means cell viability IC50>20 μM.

MM.1S cells = experiment: Effect of the compound on the proliferation of MM.1S cells (MTS); details: Homo sapiens, MM1.S, 168 h, 7 days, read-out: Cell inhibitory activity (IC50)
Summary of the method: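 In 1640 medium + 10% FBS, 20,000 cells per well were treated with 5-fold compound dilutions at 0.2% DMSO for 7 days at 37° C., 5% CO2. MTS was read after 3–4 h as OD490−OD690, inhibition was calculated against DMSO and blank wells, and IC50 was fitted; three independent experiments were run.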

Mino cells = experiment: Effect of the compound on the proliferation of Mino cells (MTS); details: Homo sapiens, 72 h, 3 days, read-out: Inhibitory activity (IC50)
Description: Mino cells were cultured with 1640 plus […] and collected. The cell concentration was diluted according to the action time of 3 days, and 90 ul cell suspension was added to each well of the 96-well cell plate to make the cell count to be 8000. 10 ul of DMSO with a final concentration of 0.2% was added to the control cell wells. The compound was diluted 5-fold with the 10 mM stock solution, and 10 ul was also added to the compound cell wells (the final concentration of DMSO was 0.2%). The cells were placed in a 37° C., […] incubator and incubated for 3 days. After preparing the reaction solution according to the MTS kit (Promega, G5430), 20 μL was added to each well, incubated in a 37° C., 5% CO2 incubator for 3-4 h. Read the 490 nm absorbance value with a microtiter plate, and used the 690 nm absorbance value as the background value and OD490-OD690 as the final initial data. The formula for calculating the inhibition rate of the compound was: inhibition rate=(OD DMSO-ODcompound)/(ODDMSO-Oblank)×100%. The compound's proliferation inhibition IC50 was fitted by Graph Pad Prism 5.0. The experiment was repeated three times, and three parallel experiments were used to calculate the average and standard deviation each time.

[1] = tested on: Colorectal cancer cells HCT-116; experiment: Proliferation of other tumor cells, HCT-116 (WST-8); details: Homo sapiens, 96 h, HCT-116 cells, 4 days, read-out: Inhibitory activity on proliferation, HCT-116 (IC50)
Description: (§2) The human triple negative breast cancer cells MDA-MB-468 and MDA-MB-231 used in this experiment were purchased from the Shanghai Cell Bank, in which L-15 medium added with 10% fetal bovine serum (FBS) and 1% double antibody was used. At 37° C., MDA-MB-468 and MDA-MB-231 cells were cultured in an incubator without CO2. Colorectal cancer cells HCT-116 were cultured in McCOY's 5A medium with 1% double antibody and 10% fetal bovine serum (FBS); prostate cancer cells DU145 were cultured in MEM medium with 1% double antibody and 10% fetal bovine serum (FBS); prostate cancer cells PC-3 were cultured in F-12 K medium with 1% double antibody and 10% fetal bovine serum (FBS); grew at 37° C., 5% CO2.
(§3) In the cell activity test experiment, 90 μL cell suspension with appropriate concentration was added to a 96-well cell culture plate according to the cell growth, each compound to be tested was gradient diluted with the corresponding medium, 10 μL diluted compound was added to 90 μL cells, and then incubated at 37° C. for 4 days. Cell proliferation was analyzed by WST-8, which could be reduced by lactate dehydrogenase in the cells to a yellow formazan. 10 μL of WST-8 reagent (DOJINDO) was added to the cells and reacted for more than 1 hour at 37° C., DMSO-treated cells were used as […]. The absorption value of 490 nm was read by enzyme-labeled plate, and the absorption value of 690 nm was taken as the background value, and OD490-OD690 was taken as the final original data, and the data was processed by GraphPad Prism6 software. The formula for calculating the inhibition rate of the compound was: inhibition rate=(ODDMSO−ODcompound)/(ODDMSO−Oblank)×100%. The compound's proliferation inhibition IC50 was fitted by Graph Pad Prism 5.0. The experiment was repeated three times, and three parallel experiments were used to calculate the average and standard deviation each time. The cell viability test results were shown in Table 4: A means cell viability IC50<1 μM, B means cell viability 1 μM≤IC50≤20 μM, C means cell viability IC50>20 μM, NT means not tested.

[2] = tested on: prostate cancer cells DU145; experiment: Proliferation of other tumor cells, DU145 (WST-8); details: Homo sapiens, DU-145, 96 h, 4 days, read-out: Inhibitory activity on proliferation, DU145 (IC50)
Description: as §2, §3

[3] = tested on: triple negative breast cancer cells MDA-MB-231; experiment: Proliferation of other tumor cells, MDA-MB-231 (WST-8); details: Homo sapiens, 96 h, MDA-MB-231 cells, 4 days, read-out: Inhibitory activity on proliferation, MDA-MB-231 (IC50)
Description: as §2, §3

[4] = tested on: prostate cancer cells PC-3; experiment: Proliferation of other tumor cells, PC-3 (WST-8); details: Homo sapiens, 96 h, PC-3 cells, 4 days, read-out: Inhibitory activity on proliferation, PC-3 (IC50)
Description: as §2, §3

[5] = MV4-11, 168 h, 7 days, MTS, read-out: Inhibitory activity (IC50)

Row | Structure (SMILES) | inhibition at 0.01 µM (TNF-α) [%] | Increase multiple of IFNγ expression (IFNγ) | Increase multiple of IL-2 Expression (IL-2) | IC50 (MV-4-11 cells; [5]) [µM] | IC50 (MM.1S cells) [nM] | IC50 (Mino cells) [nM] | IC50 (MV-4-11 cells; MV4-11, read-out: cytostatic activity (IC50) on MV-4-11 cells) [µM] | IC50 [1] [µM] | IC50 [2] [µM] | IC50 [3] [µM] | IC50 [4] [µM]
1 | O=C1CCC(N2Cc3c(OCc4cn(-c5ccc(OC(F)(F)F)cc5)nn4)cccc3C2=O)C(=O)N1 (stereo not shown) [CCC-135 (compound 17)] | > 50 | >1.5 | >3 | – | – | – | – | – | – | – | –
2 | O=C1CCC(N2Cc3c(OCc4cn(-c5cccc(OC(F)(F)F)c5)nn4)cccc3C2=O)C(=O)N1 (stereo not shown) [Compound 20, 3-(1-oxo-4-((1-(3-(trifluoromethoxy)phenyl)-1H-1,2,3-triazol-4-)methoxy)isoindolin-2-) piperidine-2,6-dione] | – | – | – | 1 to 20 | < 150 | < 150 | – | – | – | – | –
3 | Nc1cccc2c1C(=O)N(C1CCC(=O)NC1=O)C2=O (stereo not shown) [Pomalidomide, pomalidomide, reference compound] | – | – | – | > 20 | < 150 | 150 to 20000 | > 20 | – | – | – | –
4 | O=C1CCC(N2Cc3c(OCc4cnc(-c5ccc(OC(F)(F)F)cc5)o4)cccc3C2=O)C(=O)N1 (stereo not shown) [Compound 45, 3-(1-oxo-4-((2-(4-trifluoromethoxyphenyl)oxazol-5-)methoxy)isoindolin-2-) piperidine-2,6-dione] | – | – | – | – | < 150 | < 150 | – | 1 to 20 | 1 to 20 | > 20 | 1 to 20
5 | O=C1CCC(N2Cc3c(OCc4cn(-c5ccc6[nH]ccc6c5)nn4)cccc3C2=O)C(=O)N1 (stereo not shown) [Compound 26, 3-(4-((1-(1H-indol-5-)-1H-1,2,3-triazol-4-)methoxy)-1-oxoisoindolin-2-) piperidine-2,6-dione] | – | – | – | < 1 | < 150 | < 150 | – | – | – | – | –
6 | O=C1CCC(N2Cc3c(OCc4cn(-c5ccc(OC6CCOCC6)cc5)nn4)cccc3C2=O)C(=O)N1 (stereo not shown) [Compound 30, 3-(1-oxo-4-((1-(4-((2H-tetrahydropyran-4-)oxy)phenyl)-1H-1,2,3-triazol-4-)methoxy)isoindolin-2-)piperidine-2,6-dione] | – | – | – | – | < 150 | < 150 | – | 1 to 20 | 1 to 20 | 1 to 20 | 1 to 20
7 | O=C1CCC(N2Cc3c(OC[C@H]4CCN(c5ccc(OC(F)(F)F)cc5)C4)cccc3C2=O)C(=O)N1 (stereo partly drawn) [Compound 71, 3-(1-oxo-4-(((S)-1-(4-(trifluoromethoxy)phenyl)pyrrolin-3-)methoxy)isoindolin-2-) piperidine-2,6-dione] | – | – | – | 1 to 20 | 150 to 20000 | 150 to 20000 | – | – | – | – | –
